US20110200626A1, “IQGAP3 EPITOPE PEPTIDES AND VACCINES CONTAINING THE SAME” (Oncotherapy Science, Inc., priority 2008, published 2011)
Entries after “also recorded” stand apart in the source; their conditions may differ. Ends that are not written are not given here.

Key:
peptide-pulsed T2 cells [1] = assay: IFN-gamma ELISPOT assay on CTLs induced with HLA-A*0201 restricted peptides; type: cell-based, human; details: against peptide-pulsed target cells compared with control without peptide
peptide-pulsed T2 cells [2] = assay: IFN-gamma ELISA assay on CTL lines (HLA-A*0201); type: cell-based, human; details: target cells pulsed with corresponding peptide vs without peptide
peptide-pulsed T2 cells [3] = assay: IFN-gamma ELISA assay on CTL clones established by limiting dilution (HLA-A*0201); type: cell-based, human; details: peptide-pulsed target cells
Procedure: The dilutions were made to have 0.3, 1, and 3 CTLs/well in 96 round-bottomed micro titer plate (Nalge Nunc International). CTLs were cultured with 1×10^4 cells/well of 2 kinds of human B-lymphoblastoid cell lines, 30 ng/ml of anti-CD3 antibody, and 125 U/ml of IL-2 in a total of 150 and/well of AIM-VMedium containing 5% AS. 50 mcl/well of IL-2 were added to the medium 10 days later so to reach a final concentration of 125 U/ml IL-2. CTL activity was tested on the 14th day, and CTL clones were expanded using the same method as described above (Uchida N et al., Clin Cancer Res 2004 Dec. 15, 10(24): 8577-86; Suda T et al., Cancer Sci 2006 May, 97(5): 411-9; Watanabe T et al., Cancer Sci 2005 August, 96(8): 498-506).
Specifically, peptide-pulsed A24 or T2 LCL (1×10^4/well) was prepared as stimulator cells. Cultured cells in 48 wells were used as responder cells. IFN-gamma ELISPOT assay and IFN-gamma ELISA assay were performed under manufacture procedure.

[4] = system: COS7 cells transfected with IQGAP3 and HLA-A*0201; assay: Specific CTL activity against target cells exogenously expressing IQGAP3 and HLA-A*0201; type: cell-based; details: for specific CTL activity of CTL clone against controls: COS7 cells expressing either HLA-A*0201 or IQGAP3 alone; for specific CTL activity of CTL clone: COS7 cells transfected with both IQGAP3 and HLA-A*0201
Text: (§1) The cDNA encoding an open reading frame of target genes or HLA-A*0201 was amplified by PCR. The PCR-amplified products were cloned into pCAGGS vector. The plasmids were transfected into COST, which is the target genes and HLA-A*0201-negative cell line, using lipofectamine 2000 (Invitrogen) according to the manufacturer's recommended procedures. After 2 days from transfection, the transfected cells were harvested with versene (Invitrogen) and used as the target cells (5×10^4 cells/well) for CTL activity assay

[5] = system: peptide-pulsed A24LCL cells; assay: IFN-gamma ELISPOT assay on CTLs induced with HLA-A*2402 restricted peptides; type: cell-based, human; details: against peptide-pulsed target cells compared with control without peptide, listed as IQGAP3-A24-9-779
[6] = system: peptide-pulsed A24LCL cells; assay: IFN-gamma ELISA assay on CTL lines (HLA-A*2402); type: cell-based, human; details: target cells pulsed with corresponding peptide vs without peptide
[7] = system: COS7 cells transfected with IQGAP3 and HLA-A*2402; assay: Specific CTL activity against target cells exogenously expressing IQGAP3 and HLA-A*2402; type: cell-based
Text: as §1, with “gene” for “genes”, “HLA-A24” for “HLA-A*0201”, “product was” for “products were”, “COS7,” for “COST,”, “HLA-A24-null” for “HLA-A*0201-negative”, “assay.” for “assay”

GLDDVSLPV [SEQ ID NO: 85]
IFN-gamma production of peptide-induced CTLs (ELISPOT) (peptide-pulsed T2 cells [1]; listed as IQGAP3-A02-9-553): potent IFN-gamma production ability | IFN-gamma production of established CTL lines (ELISA) (peptide-pulsed T2 cells [2]): potent IFN-gamma production | IFN-gamma production of CTL clones (ELISA) (peptide-pulsed T2 cells [3]; listed as IQGAP3-A02-9-553): potent IFN-gamma production | specific CTL activity of CTL clone against controls [4]: no significant specific CTL activity | specific CTL activity of CTL clone ([4]; listed as IQGAP3-A02-9-553): potent CTL activity; also recorded: specific CTL activity

IYLEWLQYF [SEQ ID NO: 7]
IFN-gamma production of peptide-induced CTLs (ELISPOT) [5]: potent IFN-gamma production ability | IFN-gamma production of established CTL lines (ELISA) [6]: potent IFN-gamma production | specific CTL activity of CTL line against controls ([7]; COS7 cells expressing either HLA-A*2402 or IQGAP3 alone): no significant specific CTL activity | specific CTL activity of CTL line ([7]; COS7 cells transfected with both IQGAP3 and HLA-A*2402, listed as IQGAP3-A24-9-779): potent CTL activity; also recorded: specific CTL activity

LLYYrFLNPA (LLYYRFLNPA; not fully specified (residue 5); printed as LLYYrFLNPA) [SEQ ID NO: 121]
IFN-gamma production of peptide-induced CTLs (ELISPOT) (peptide-pulsed T2 cells [1]; listed as IQGAP3-A02-10-1174): potent IFN-gamma production ability | IFN-gamma production of established CTL lines (ELISA) (peptide-pulsed T2 cells [2]): potent IFN-gamma production | IFN-gamma production of CTL clones (ELISA) (peptide-pulsed T2 cells [3]; listed as IQGAP3-A02-10-1174): potent IFN-gamma production

SLFLFRLGL [SEQ ID NO: 75]
IFN-gamma production of peptide-induced CTLs (ELISPOT) (peptide-pulsed T2 cells [1]; listed as IQGAP3-A02-9-146): potent IFN-gamma production ability | IFN-gamma production of established CTL lines (ELISA) (peptide-pulsed T2 cells [2]): potent IFN-gamma production | IFN-gamma production of CTL clones (ELISA) (peptide-pulsed T2 cells [3]; listed as IQGAP3-A02-9-146): potent IFN-gamma production

VLNDYLEET [SEQ ID NO: 99]
IFN-gamma production of peptide-induced CTLs (ELISPOT) (peptide-pulsed T2 cells [1]; listed as IQGAP3-A02-9-1234): potent IFN-gamma production ability | IFN-gamma production of established CTL lines (ELISA) (peptide-pulsed T2 cells [2]): potent IFN-gamma production | specific CTL activity of CTL clone against controls [4]: no significant specific CTL activity | specific CTL activity of CTL clone ([4]; listed as IQGAP3-A02-9-1234): potent CTL activity; also recorded: specific CTL activity
